Measurements from ChEMBL document CHEMBL3885881, “DrugMatrix”.

Organism: Rattus norvegicus
Test: DrugMatrix - Regimen: Daily Repeat
Type: toxicity, organism-based, Sprague-Dawley
Design: regimen Daily Repeat, gender Male, age 6-8 weeks
Settings: in vivo, po, 0 mg/kg, route oral GAVAGE, dose level Control, vehicle .5 % CMC; for BASOPHIL / EOSINOPHIL / ERYTHROCYTE COUNT / HEMATOCRIT / HEMOGLOBIN / LEUKOCYTE COUNT / LYMPHOCYTE / MEAN CORPUSCULAR HEMOGLOBIN / MEAN CORPUSCULAR HEMOGLOBIN CONCENTRATION / MEAN CORPUSCULAR VOLUME / MONOCYTE / NEUTROPHIL / PLATELET COUNT: tissue Blood; for ALANINE AMINOTRANSFERASE / ALBUMIN / ALKALINE PHOSPHATASE / ASPARTATE AMINOTRANSFERASE / BLOOD UREA NITROGEN / CARBON DIOXIDE / CHLORIDE / CHOLESTEROL / CREATINE PHOSPHOKINASE / CREATININE / GLUCOSE / LACTATE DEHYDROGENASE / LIPASE / PHOSPHORUS / POTASSIUM / SODIUM / TOTAL BILIRUBIN / TOTAL PROTEIN / URIC ACID: tissue Plasma

With `CCOP(=S)(OCC)Oc1nc(Cl)c(Cl)cc1Cl` [CHLORPYRIFOS] the BASOPHIL (72 h, time 3 day) was 0.62%, the EOSINOPHIL (72 h, time 3 day) was 0.52% and the “ERYTHROCYTE COUNT” value (72 h, time 3 day) was 6.33 x10E6/uL. For the same compound, the HEMATOCRIT (72 h, time 3 day) was 41.88%, the HEMOGLOBIN (72 h, time 3 day) was 13.52 G/DL and the “LEUKOCYTE COUNT” value (72 h, time 3 day) was 11.39 x10E3/uL. The LYMPHOCYTE (72 h, time 3 day) was 86.18%, the “MEAN CORPUSCULAR HEMOGLOBIN” value (72 h, time 3 day) was 21.35 pg and the “MEAN CORPUSCULAR HEMOGLOBIN CONCENTRATION” value (72 h, time 3 day) was 32.23 G/DL. For the same compound, the “MEAN CORPUSCULAR VOLUME” value (72 h, time 3 day) was 66.25 fL, the MONOCYTE (72 h, time 3 day) was 1.93% and the NEUTROPHIL (72 h, time 3 day) was 9.1%. For the same compound, the “PLATELET COUNT” value (72 h, time 3 day) was 1204.5 x10E3/uL, the “ALANINE AMINOTRANSFERASE” value (72 h, time 3 day) was 43 u/L and the ALBUMIN (72 h, time 3 day) was 4.08 G/DL. For the same compound, the “ALKALINE PHOSPHATASE” value (72 h, time 3 day) was 426.33 u/L, the “ASPARTATE AMINOTRANSFERASE” value (72 h, time 3 day) was 72.5 u/L and the “BLOOD UREA NITROGEN” value (72 h, time 3 day) was 16.67 mg/dL. The “CARBON DIOXIDE” value (72 h, time 3 day) was 28.33 mmol/L, the CHLORIDE (72 h, time 3 day) was 103.5 MEQ/L and the CHOLESTEROL (72 h, time 3 day) was 78.83 mg/dL. The “CREATINE PHOSPHOKINASE” value (72 h, time 3 day) was 325.67 u/L, the CREATININE (72 h, time 3 day) was 0.48 mg/dL and the GLUCOSE (72 h, time 3 day) was 171.67 mg/dL. The “LACTATE DEHYDROGENASE” value (72 h, time 3 day) was 107.33 u/L, the LIPASE (72 h, time 3 day) was 11.83 u/L and the PHOSPHORUS (72 h, time 3 day) was 12.55 mg/dL. The POTASSIUM (72 h, time 3 day) was 6.57 MEQ/L, the SODIUM (72 h, time 3 day) was 145.67 MEQ/L and the “TOTAL BILIRUBIN” value (72 h, time 3 day) was 0.42 mg/dL. The “TOTAL PROTEIN” value (72 h, time 3 day) was 6.1 G/DL, the “URIC ACID” value (72 h, time 3 day) was 1.57 mg/dL and the BASOPHIL (120 h, time 5 day) was 0.48%. For the same compound, the EOSINOPHIL (120 h, time 5 day) was 0.67%, the “ERYTHROCYTE COUNT” value (120 h, time 5 day) was 6.69 x10E6/uL and the HEMATOCRIT (120 h, time 5 day) was 44.17%. For the same compound, the HEMOGLOBIN (120 h, time 5 day) was 13.78 G/DL, the “LEUKOCYTE COUNT” value (120 h, time 5 day) was 7.86 x10E3/uL and the LYMPHOCYTE (120 h, time 5 day) was 85.9%. For the same compound, the “MEAN CORPUSCULAR HEMOGLOBIN” value (120 h, time 5 day) was 20.6 pg, the “MEAN CORPUSCULAR HEMOGLOBIN CONCENTRATION” value (120 h, time 5 day) was 31.25 G/DL and the “MEAN CORPUSCULAR VOLUME” value (120 h, time 5 day) was 65.9 fL. The MONOCYTE (120 h, time 5 day) was 3.27%, the NEUTROPHIL (120 h, time 5 day) was 8.67% and the “PLATELET COUNT” value (120 h, time 5 day) was 1182.33 x10E3/uL. The “ALANINE AMINOTRANSFERASE” value (120 h, time 5 day) was 37.5 u/L, the ALBUMIN (120 h, time 5 day) was 4 G/DL and the “ALKALINE PHOSPHATASE” value (120 h, time 5 day) was 348.17 u/L. The “ASPARTATE AMINOTRANSFERASE” value (120 h, time 5 day) was 71.67 u/L, the “BLOOD UREA NITROGEN” value (120 h, time 5 day) was 13 mg/dL and the “CARBON DIOXIDE” value (120 h, time 5 day) was 27 mmol/L. The CHLORIDE (120 h, time 5 day) was 104.67 MEQ/L, the CHOLESTEROL (120 h, time 5 day) was 73.33 mg/dL and the “CREATINE PHOSPHOKINASE” value (120 h, time 5 day) was 211.33 u/L. For the same compound, the CREATININE (120 h, time 5 day) was 0.23 mg/dL, the GLUCOSE (120 h, time 5 day) was 155 mg/dL and the “LACTATE DEHYDROGENASE” value (120 h, time 5 day) was 133.83 u/L. It also gave an LIPASE (120 h, time 5 day) of 11.17 u/L, a PHOSPHORUS (120 h, time 5 day) of 14.53 mg/dL and a POTASSIUM (120 h, time 5 day) of 6.65 MEQ/L. The SODIUM (120 h, time 5 day) was 148.17 MEQ/L, the “TOTAL BILIRUBIN” value (120 h, time 5 day) was 0.28 mg/dL and the “TOTAL PROTEIN” value (120 h, time 5 day) was 6.22 G/DL. The “URIC ACID” value (120 h, time 5 day) was 1.57 mg/dL, the BASOPHIL ([…], time 14 day) was 0.97% and the EOSINOPHIL ([…], time 14 day) was 0.8%. The “ERYTHROCYTE COUNT” value ([…], time 14 day) was 7.02 x10E6/uL, the HEMATOCRIT ([…], time 14 day) was 44.43% and the HEMOGLOBIN ([…], time 14 day) was 14.58 G/DL. For the same compound, the “LEUKOCYTE COUNT” value ([…], time 14 day) was 16.49 x10E3/uL, the LYMPHOCYTE ([…], time 14 day) was 79.03% and the “MEAN CORPUSCULAR HEMOGLOBIN” value ([…], time 14 day) was 20.85 pg. For the same compound, the “MEAN CORPUSCULAR HEMOGLOBIN CONCENTRATION” value ([…], time 14 day) was 32.78 G/DL, the “MEAN CORPUSCULAR VOLUME” value ([…], time 14 day) was 63.57 fL and the MONOCYTE ([…], time 14 day) was 1.9%. The NEUTROPHIL ([…], time 14 day) was 15.18%, the “PLATELET COUNT” value ([…], time 14 day) was 1184.33 x10E3/uL and the “ALANINE AMINOTRANSFERASE” value ([…], time 14 day) was 43 u/L. The ALBUMIN ([…], time 14 day) was 4.25 G/DL, the “ALKALINE PHOSPHATASE” value ([…], time 14 day) was 409.67 u/L and the “ASPARTATE AMINOTRANSFERASE” value ([…], time 14 day) was 84.17 u/L. For the same compound, the “BLOOD UREA NITROGEN” value ([…], time 14 day) was 16 mg/dL, the “CARBON DIOXIDE” value ([…], time 14 day) was 35.17 mmol/L and the CHLORIDE ([…], time 14 day) was 99.83 MEQ/L. For the same compound, the CHOLESTEROL ([…], time 14 day) was 68.67 mg/dL, the “CREATINE PHOSPHOKINASE” value ([…], time 14 day) was 384.17 u/L and the CREATININE ([…], time 14 day) was 0.43 mg/dL. For the same compound, the GLUCOSE ([…], time 14 day) was 160 mg/dL, the “LACTATE DEHYDROGENASE” value ([…], time 14 day) was 115.33 u/L and the LIPASE ([…], time 14 day) was 17.33 u/L. For the same compound, the PHOSPHORUS ([…], time 14 day) was 10.68 mg/dL, the POTASSIUM ([…], time 14 day) was 6.48 MEQ/L and the SODIUM ([…], time 14 day) was 148.17 MEQ/L. The “TOTAL BILIRUBIN” value ([…], time 14 day) was 0.45 mg/dL and the “TOTAL PROTEIN” value ([…], time 14 day) was 6.57 G/DL.
